In experiment [1] the target is recombinant SvelOBP15. Put plainly: Fluorescence competitive binding assay with 1-NPN as fluorescent reporter. More on the design: species or system Sympiezomias velatus. As to conditions: for Ki: calculated from IC50, mean ± SE, read-out: Ki (dissociation constant); for Ki / IC50: 1-NPN 2 μmol/L; for IC50: competitor 2 to 20 μmol/L, concentration halving the fluorescence of 1-NPN; for binding to SvelOBP15 (in words): competitive binding, competitor up to 20 μmol/L. On the procedure:
The whole ORF of SvelOBP15 was successfully validated by RT-PCR and Sanger sequencing and then synthesized (without the signal peptide-encoding region) by Sangon Biotech (Shanghai, China). It was first cloned into the pGEM-T cloning vector (Promega, Madison, United States) and then subcloned into the expression vector pET-30a(+) (Novagen, Darmstadt, Germany). Recombinant SvelOBP15 was expressed in Escherichia coli Transetta (DE3) following induction with 0.5 mM isopropyl-b-D-thiogalactopyranoside (IPTG) after the culture reached an OD600 of 0.4–0.6. Incubation was continued at 37°C with shaking at 220 rpm for an additional 6 h. […] Denaturation and renaturation were performed following previously reported methods ([Liu et al., 2012]). The protein was purified using a HisTrap HP prepacked column (GE Healthcare, Pittsburgh, United States) according to the manufacturer’s instructions, and recombinant enterokinase (rEK) (GenScript Biology Company, Nanjing, China) was used to remove the His-tag. After running the digested protein back through the HisTrap HP prepacked column, the tag-free protein was obtained in the flow-through fraction. Proteins were visualized at all stages of purification by SDS-PAGE.
(§1) Fluorescence competitive binding assays were performed as reported previously ([Liu et al., 2015]). This assay was conducted on a Hitachi F-7000 fluorescence spectrophotometer with a 1-cm light path quartz cuvette and 10-nm slits for both excitation and emission. The excitation wavelength was 337 nm, and the emission spectrum was recorded between 390 and 460 nm. First, to determine the binding affinities of N-phenyl-1-naphthylamine (1-NPN) to OBP15, the fluorescence intensity values at maximum fluorescence emissions were plotted against the free ligand concentration by titrating increasing concentrations of 1-NPN. The binding curves were linearized using Scatchard plots. Next, competitive binding assays of OBP15 to 33 chemicals (Supplementary Table S2) of different structural characteristics were carried out using 1-NPN as the fluorescent reporter at a concentration of 2 μmol/L, whereas the concentration of each competitor varied from 2 to 20 μmol/L. These chemicals included the volatile components of host plants such as peanut, elm, maize, cotton, etc. ([Hammack, 2001]; [Cardoza et al., 2002]; [Ngumbi et al., 2009]; [Cheng et al., 2010]) and aggregation pheromone components of curculionids ([Gries et al., 1993]; [Hallett et al., 1993]; [Eller et al., 1994]; [Szendrei et al., 2011]). Chemicals were purchased from Sigma-Aldrich (St. Louis, United States) (purity >95% or 90%). Based on the assumption that the activity of proteins was 100% with a saturation stoichiometry of 1:1 (protein: ligand), the dissociation constants (Ki) of the competitors were calculated from the IC50 values (the concentrations of the ligands halving the fluorescence of 1-NPN) using the following equation:
Ki = [IC50]/(1 + [1-NPN]/K1-NPN) ([Ban et al., 2003]).Where [1-NPN] is the free concentration of 1-NPN and K1-NPN is the dissociation constant of the complex protein/1-NPN.
Ki values of various compounds (mean ± SE) were subjected to one-way ANOVA followed by Tukey post hoc test for mean comparison using SPSS Statistics 20.0 (SPSS Inc., Chicago, United States).

In experiment [2] the target is recombinant SvelOBP15. Put plainly: 1-NPN titration (binding curve, Scatchard plot). Further details: species or system Sympiezomias velatus. The conditions noted are these: titration with increasing 1-NPN, read-out: dissociation constant of 1-NPN. The procedure:
as §1, with “Based on the assumption that the activity of proteins was 100% with a saturation stoichiometry of 1:1 (protein: ligand), the dissociation constants (Ki) of the competitors were calculated from the IC50 values (the concentrations of the ligands halving the fluorescence of 1-NPN) using the following equation:” left out

The test system of experiment [3] is AquaOBP4. Further details: method as in Wang et al., 2017. As to conditions: ref Wang et al., 2017; cited from earlier work.
The subject of experiment [4] is SzeaOBP28. More on the design: method as in Zhang Y. et al., 2019. The conditions noted are these: ref Zhang Y. et al., 2019; cited from earlier work.

On to `C=CC(C)(O)CCC=C(C)CCC=C(C)C` (mixture of isomers) [Nerolidol], for which the Ki in experiment [1] was 12.9 ± 0.43 µM.

Take `Cc1cccc2ccccc12` [1-Methylnaphthalene]: the IC50 in experiment [1] was > 20 µM.

As to `c1ccc(Nc2cccc3ccccc23)cc1` [1-NPN, N-phenyl-1-naphthylamine], the Kd in experiment [2] turned out to be 4.68 ± 0.16 µM.

In the case of `C=CC(O)CCCCC` (stereo not shown) [1-Octen-3-ol], in experiment [1], the IC50 is > 20 µM.

Regarding `CC(=O)c1ccc(C)c(C)c1` [3',4'-Dimethylacetophenone], the IC50 in experiment [1] was > 20 µM.

For the compound `CCCCC(O)C(C)CC` (stereo not shown) [3-Methyl-4-octanol], in experiment [1], the 50% inhibitory concentration (IC50) is > 20 µM.

Turning to `CCc1ccc(C(C)=O)cc1` [4-Ethylacetophenone], the concentration for half-maximal inhibition (IC50) in experiment [1] was > 20 µM.

As for `CCCCC(O)C(C)CCC` (stereo not shown) [4-Methyl-5-nonanol], the IC50 in experiment [1] was > 20 µM.

Take `CCCCC(=O)C(C)CCC` (stereo not shown) [4-Methyl-5-nonanone]: the IC50 in experiment [1] was > 20 µM.

On to `O=C1CCCC1C1CCCC1` (stereo not shown) [(1,1`-Bicyclopentyl)-2-one], for which the half-maximal inhibitory concentration (IC50) in experiment [1] was > 20 µM.

Take `C=C1CC/C=C(\C)CC[C@@H]2[C@@H]1CC2(C)C` [(-)-trans-Caryophyllene]: in experiment [1], the 50% inhibitory concentration (IC50) is > 20 µM.

As to `CC(C)=CCC/C(C)=C/CO` [(E)-3,7-Dimethyl-2,6-octadien-1-ol], the IC50 in experiment [1] is > 20 µM.

As for `CC(C)=CCC/C(C)=C/CC/C(C)=C/CO` [(E,E)-Farnesol], in experiment [1], the IC50 is 9.26 ± 0.43 µM and the inhibition constant (Ki) was 7.36 ± 0.36 µM.

In the case of `O=Cc1ccccc1` [Benzalehyde], in experiment [1], the IC50 is > 20 µM.

For the compound `CC(C)COC(=O)CCCCC(=O)OCC(C)C` [Diisobutyl adipate], the IC50 in experiment [1] was > 20 µM.

With `CC(C)COC(=O)c1ccccc1C(=O)OCC(C)C` [Diisobutyl phthalate], in experiment [1], the IC50 amounted to 15.8 ± 0.42 µM and the inhibition constant Ki is 12.6 ± 0.34 µM. For the same compound, the “binding to AquaOBP4 (in words)” value in experiment [3] was “weakly bound”.

Turning to `CCCCCCCCCCCC` [Dodecane], in experiment [1], the IC50 is > 20 µM and the “binding to SvelOBP15 (in words)” value is given as “cannot be bound”.

For the compound `CC(C)=CCC/C(C)=C/C(=O)O` [Geranic acid], the half-maximal inhibitory concentration (IC50) in experiment [1] was > 20 µM.

On to `C=C(C)[C@H]1CC=C(C)CC1` [Limonene], for which, in experiment [1], the IC50 is 14.7 ± 0.53 µM and the Ki is 11.7 ± 0.47 µM.

Regarding `C=CC(C)(O)CCC=C(C)C` (stereo not shown) [Linalool], the half-maximal inhibitory concentration (IC50) in experiment [1] was > 20 µM.

For `COC(=O)c1ccccc1O` [Methyl salicylate], the IC50 in experiment [1] is > 20 µM.

Consider `CCCCCCCCC=O` [Nonanal], for which the IC50 in experiment [1] is > 20 µM.

`CCCCCCCCCCCCCCCC(=O)O` [Palmitic acid]: the IC50 in experiment [1] is > 20 µM.

As for `CCCCCCCCCCCCCCC` [Pentadecane], in experiment [1], the IC50 was > 20 µM and the “binding to SvelOBP15 (in words)” value is given as “cannot be bound”.

With `CCCCCCCCCCCCCC` [Tetradecane], in experiment [1], the IC50 is > 20 µM and the “binding to SvelOBP15 (in words)” value is recorded as “cannot be bound”.

For `CC/C=C\CCO` [Z-3-hexen-1-ol], the half-maximal inhibitory concentration (IC50) in experiment [1] is > 20 µM.

Take `COCCOC(=O)c1ccccc1C(=O)OCCOC` [bis (2-methoxyethyl) phthalate]: in experiment [4], the “binding to SzeaOBP28 (in words)” value is listed as “exhibited a binding affinity”.

Turning to `CC/C=C\CCOC(C)=O` [cis-3-Hexenyl acetate], in experiment [1], the half-inhibitory concentration (IC50) is > 20 µM.

Consider `CCCCCCCCCCCCCCCC` [n-Hexadecane], for which, in experiment [1], the IC50 is > 20 µM and the “binding to SvelOBP15 (in words)” value is given as “cannot be bound”.

As for `CCC/C=C/COC(C)=O` [trans-2-Hexenyl acetate], the IC50 in experiment [1] is > 20 µM.

For `CCC/C=C/C=O` [trans-2-Hexenyl aldehyde], in experiment [1], the IC50 was > 20 µM.

On to `C=C/C(C)=C/C/C=C(\C)CCC=C(C)C` [α-Farnesene], for which, in experiment [1], the concentration for half-maximal inhibition (IC50) was > 20 µM.

Take `C=C/C(C)=C/CC=C(C)C` [β-Ocimene]: the IC50 in experiment [1] is > 20 µM.

As to (+)-α-Pinene, the IC50 in experiment [1] was > 20 µM.

In the case of (+)-β-Pinene, the IC50 in experiment [1] was > 20 µM.

One may read the Ki as a dissociation constant, usually derived from enzyme kinetics or from competition with a known ligand. The IC50 is the concentration that gives 50% inhibition.
